Measured values as given in the kinase profiling compilation of Christmann-Franck et al. (2016).
Where “and” joins values, the source holds several entries; their conditions need not be identical. Identical values can stand only once.

Experiments:
Assay in all cases: radiometric filter-binding kinase assay, Kinase HotSpot
Details in all cases: compound 0.5 µM; ATP 10 µM
EPHB2 (human) = EPHB2 (human) (UniProt P29323)
EPHA6 (human) = EPHA6 (human) (UniProt Q9UF33)
TGFBR2 (human) = TGFBR2 (human) (UniProt P37173)
DYRK3 (human) = DYRK3 (human) (UniProt O43781)
TLK2 (human) = TLK2 (human) (UniProt Q86UE8)
PHKG2 (human) = PHKG2 (human) (UniProt P15735)
CSNK1A1 (human) = CSNK1A1 (human) (UniProt P48729)
Chain of CSNK1A1 (human) (P48729 whole entry, looked up): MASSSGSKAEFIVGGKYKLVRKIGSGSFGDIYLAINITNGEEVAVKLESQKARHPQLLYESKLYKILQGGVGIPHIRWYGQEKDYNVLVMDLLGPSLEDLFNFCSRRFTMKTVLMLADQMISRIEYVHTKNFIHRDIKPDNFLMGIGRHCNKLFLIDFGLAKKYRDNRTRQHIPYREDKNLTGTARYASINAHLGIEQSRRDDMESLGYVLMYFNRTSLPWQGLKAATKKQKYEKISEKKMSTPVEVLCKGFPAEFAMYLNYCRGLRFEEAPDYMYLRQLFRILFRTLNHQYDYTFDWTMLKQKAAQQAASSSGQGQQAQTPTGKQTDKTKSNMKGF

PRKD3 (human) = PRKD3 (human) (UniProt O94806)
CAMK2B (human) = CAMK2B (human) (UniProt Q13554)
Chain of CAMK2B (human) (Q13554 whole entry, looked up): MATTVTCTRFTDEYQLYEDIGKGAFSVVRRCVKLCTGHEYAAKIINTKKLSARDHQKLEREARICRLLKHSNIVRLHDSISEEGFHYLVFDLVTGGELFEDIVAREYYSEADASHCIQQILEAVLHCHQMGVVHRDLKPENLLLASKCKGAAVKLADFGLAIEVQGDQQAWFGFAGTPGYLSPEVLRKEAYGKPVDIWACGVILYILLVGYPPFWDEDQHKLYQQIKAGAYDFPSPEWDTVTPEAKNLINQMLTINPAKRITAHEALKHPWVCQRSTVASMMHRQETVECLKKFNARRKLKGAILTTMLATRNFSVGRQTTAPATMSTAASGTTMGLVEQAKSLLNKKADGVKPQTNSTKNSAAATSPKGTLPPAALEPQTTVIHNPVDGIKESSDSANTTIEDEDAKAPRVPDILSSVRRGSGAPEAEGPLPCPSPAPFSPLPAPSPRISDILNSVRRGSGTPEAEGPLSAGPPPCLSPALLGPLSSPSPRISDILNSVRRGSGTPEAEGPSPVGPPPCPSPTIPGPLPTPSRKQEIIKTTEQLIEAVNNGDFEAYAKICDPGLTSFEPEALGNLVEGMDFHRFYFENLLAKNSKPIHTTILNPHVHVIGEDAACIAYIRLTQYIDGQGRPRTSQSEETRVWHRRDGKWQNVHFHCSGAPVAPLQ

KDR (human) = KDR (human) (UniProt P35968)
[1] = molecular target: TYK2 JH1 catalytic (human) (UniProt P29597)
RPS6KB2 (human) = RPS6KB2 (human) (UniProt Q9UBS0)
PAK6 (human) = PAK6 (human) (UniProt Q9NQU5)
Chain of PAK6 (human) (Q9NQU5 whole entry, looked up): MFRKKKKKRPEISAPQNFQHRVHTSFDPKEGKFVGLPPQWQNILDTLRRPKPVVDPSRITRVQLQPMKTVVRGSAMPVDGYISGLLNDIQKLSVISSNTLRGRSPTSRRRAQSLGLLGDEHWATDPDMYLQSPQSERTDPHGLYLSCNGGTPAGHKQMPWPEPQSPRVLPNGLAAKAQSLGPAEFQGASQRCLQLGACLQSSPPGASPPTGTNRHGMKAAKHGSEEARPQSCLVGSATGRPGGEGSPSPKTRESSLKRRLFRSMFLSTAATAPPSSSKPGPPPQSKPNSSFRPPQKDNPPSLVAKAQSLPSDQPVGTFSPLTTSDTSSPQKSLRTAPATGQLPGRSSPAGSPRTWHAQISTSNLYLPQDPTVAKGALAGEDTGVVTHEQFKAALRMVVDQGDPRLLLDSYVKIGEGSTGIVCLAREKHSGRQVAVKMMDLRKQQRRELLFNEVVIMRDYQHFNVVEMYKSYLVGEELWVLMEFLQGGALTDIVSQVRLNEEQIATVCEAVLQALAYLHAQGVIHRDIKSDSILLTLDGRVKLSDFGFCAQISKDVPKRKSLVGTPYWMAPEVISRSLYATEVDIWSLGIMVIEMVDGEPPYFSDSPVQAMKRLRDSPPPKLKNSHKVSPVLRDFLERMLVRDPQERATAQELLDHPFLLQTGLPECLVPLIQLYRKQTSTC

STK38 (human) = STK38 (human) (UniProt Q15208)
DYRK1A (human) = DYRK1A (human) (UniProt Q13627)
CHEK1 (human) = CHEK1 (human) (UniProt O14757)
Chain of CHEK1 (human) (O14757 whole entry, looked up): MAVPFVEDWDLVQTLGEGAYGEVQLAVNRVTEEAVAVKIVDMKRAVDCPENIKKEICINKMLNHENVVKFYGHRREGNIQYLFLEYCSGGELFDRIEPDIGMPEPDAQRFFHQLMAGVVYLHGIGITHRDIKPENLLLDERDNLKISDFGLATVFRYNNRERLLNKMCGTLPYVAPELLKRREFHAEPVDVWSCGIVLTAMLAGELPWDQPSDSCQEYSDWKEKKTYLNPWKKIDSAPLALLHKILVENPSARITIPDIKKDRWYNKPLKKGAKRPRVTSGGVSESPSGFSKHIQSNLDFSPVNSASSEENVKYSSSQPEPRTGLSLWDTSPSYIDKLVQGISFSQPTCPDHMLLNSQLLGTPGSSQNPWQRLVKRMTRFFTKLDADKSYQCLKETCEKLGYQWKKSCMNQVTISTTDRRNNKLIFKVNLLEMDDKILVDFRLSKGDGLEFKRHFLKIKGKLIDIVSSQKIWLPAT

PRKACG (human) = PRKACG (human) (UniProt P22612)
CSNK2A1 (human) = CSNK2A1 (human) (UniProt P68400)
PRKCA (human) = PRKCA (human) (UniProt P17252)
EGFR (human) = EGFR (human) (UniProt P00533)
[2] = molecular target: JAK1 JH1 catalytic (human) (UniProt P23458)
PRKG1 (human) = PRKG1 (human) (UniProt Q13976)
Chain of PRKG1 (human) (Q13976 whole entry, looked up): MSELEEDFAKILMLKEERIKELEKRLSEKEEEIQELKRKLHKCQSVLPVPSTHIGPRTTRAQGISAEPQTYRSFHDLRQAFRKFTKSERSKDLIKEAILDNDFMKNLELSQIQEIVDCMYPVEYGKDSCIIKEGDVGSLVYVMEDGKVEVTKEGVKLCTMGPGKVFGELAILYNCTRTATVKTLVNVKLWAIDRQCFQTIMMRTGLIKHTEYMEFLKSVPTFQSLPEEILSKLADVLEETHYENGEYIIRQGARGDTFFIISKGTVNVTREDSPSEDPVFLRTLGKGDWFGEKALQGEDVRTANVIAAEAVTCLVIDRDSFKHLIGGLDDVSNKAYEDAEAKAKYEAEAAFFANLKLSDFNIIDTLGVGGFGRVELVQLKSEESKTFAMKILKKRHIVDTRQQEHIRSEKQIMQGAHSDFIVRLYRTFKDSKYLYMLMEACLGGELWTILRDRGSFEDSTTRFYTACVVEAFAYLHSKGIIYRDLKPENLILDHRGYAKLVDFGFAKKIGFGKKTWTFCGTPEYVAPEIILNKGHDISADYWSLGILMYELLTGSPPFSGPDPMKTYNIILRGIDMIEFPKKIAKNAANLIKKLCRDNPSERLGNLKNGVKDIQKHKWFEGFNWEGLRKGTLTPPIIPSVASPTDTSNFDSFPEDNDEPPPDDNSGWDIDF

BRAF (human) = BRAF (human) (UniProt P15056)
[3] = test system: SGK1 (human), O00141 [S422D]
ULK3 (human) = ULK3 (human) (UniProt Q6PHR2)
PDPK1 (human) = PDPK1 (human) (UniProt O15530)
Chain of PDPK1 (human) (O15530 whole entry, looked up): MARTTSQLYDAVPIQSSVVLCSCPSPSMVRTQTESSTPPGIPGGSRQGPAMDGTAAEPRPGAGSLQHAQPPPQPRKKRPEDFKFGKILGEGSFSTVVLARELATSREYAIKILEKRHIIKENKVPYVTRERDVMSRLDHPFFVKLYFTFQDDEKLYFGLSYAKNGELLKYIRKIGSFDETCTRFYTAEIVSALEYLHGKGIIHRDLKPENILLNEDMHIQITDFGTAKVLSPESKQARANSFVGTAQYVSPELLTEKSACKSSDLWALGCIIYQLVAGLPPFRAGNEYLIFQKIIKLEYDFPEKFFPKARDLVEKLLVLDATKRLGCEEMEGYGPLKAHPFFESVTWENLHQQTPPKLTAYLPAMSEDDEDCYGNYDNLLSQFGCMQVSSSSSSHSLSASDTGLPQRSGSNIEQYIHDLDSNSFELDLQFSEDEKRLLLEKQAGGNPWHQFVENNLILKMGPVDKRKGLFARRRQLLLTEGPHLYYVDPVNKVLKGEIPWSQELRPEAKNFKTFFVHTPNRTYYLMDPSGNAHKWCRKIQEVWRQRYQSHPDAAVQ

MARK1 (human) = MARK1 (human) (UniProt Q9P0L2)
CDK3 CCNE1 (human) = CDK3 CCNE1 (human) (UniProt Q00526+P24864)
KIT (human) = KIT (human) (UniProt P10721)
YES1 (human) = YES1 (human) (UniProt P07947)
CLK4 (human) = CLK4 (human) (UniProt Q9HAZ1)
MAPK14 (human) = MAPK14 (human) (UniProt Q16539)
Chain of MAPK14 (human) (Q16539 whole entry, looked up): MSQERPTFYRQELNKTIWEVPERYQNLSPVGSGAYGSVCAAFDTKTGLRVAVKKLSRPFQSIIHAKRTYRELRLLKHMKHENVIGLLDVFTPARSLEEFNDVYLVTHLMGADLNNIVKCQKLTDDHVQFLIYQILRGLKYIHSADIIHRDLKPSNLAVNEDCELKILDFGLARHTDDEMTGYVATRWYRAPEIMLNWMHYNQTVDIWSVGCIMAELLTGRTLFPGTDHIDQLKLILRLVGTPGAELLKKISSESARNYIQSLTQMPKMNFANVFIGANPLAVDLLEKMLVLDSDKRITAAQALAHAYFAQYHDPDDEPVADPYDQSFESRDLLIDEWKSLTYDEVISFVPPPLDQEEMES

RPS6KB1 (human) = RPS6KB1 (human) (UniProt P23443)
RET (human) = RET (human) (UniProt P07949)
MAPKAPK5 (human) = MAPKAPK5 (human) (UniProt Q8IW41)
PTK2 (human) = PTK2 (human) (UniProt Q05397)
MKNK2 (human) = MKNK2 (human) (UniProt Q9HBH9)
STK16 (human) = STK16 (human) (UniProt O75716)
TAOK2 (human) = TAOK2 (human) (UniProt Q9UL54)
MYO3B (human) = MYO3B (human) (UniProt Q8WXR4)
LCK (human) = LCK (human) (UniProt P06239)

Chain of EPHA6 (human) (Q9UF33 whole entry, looked up): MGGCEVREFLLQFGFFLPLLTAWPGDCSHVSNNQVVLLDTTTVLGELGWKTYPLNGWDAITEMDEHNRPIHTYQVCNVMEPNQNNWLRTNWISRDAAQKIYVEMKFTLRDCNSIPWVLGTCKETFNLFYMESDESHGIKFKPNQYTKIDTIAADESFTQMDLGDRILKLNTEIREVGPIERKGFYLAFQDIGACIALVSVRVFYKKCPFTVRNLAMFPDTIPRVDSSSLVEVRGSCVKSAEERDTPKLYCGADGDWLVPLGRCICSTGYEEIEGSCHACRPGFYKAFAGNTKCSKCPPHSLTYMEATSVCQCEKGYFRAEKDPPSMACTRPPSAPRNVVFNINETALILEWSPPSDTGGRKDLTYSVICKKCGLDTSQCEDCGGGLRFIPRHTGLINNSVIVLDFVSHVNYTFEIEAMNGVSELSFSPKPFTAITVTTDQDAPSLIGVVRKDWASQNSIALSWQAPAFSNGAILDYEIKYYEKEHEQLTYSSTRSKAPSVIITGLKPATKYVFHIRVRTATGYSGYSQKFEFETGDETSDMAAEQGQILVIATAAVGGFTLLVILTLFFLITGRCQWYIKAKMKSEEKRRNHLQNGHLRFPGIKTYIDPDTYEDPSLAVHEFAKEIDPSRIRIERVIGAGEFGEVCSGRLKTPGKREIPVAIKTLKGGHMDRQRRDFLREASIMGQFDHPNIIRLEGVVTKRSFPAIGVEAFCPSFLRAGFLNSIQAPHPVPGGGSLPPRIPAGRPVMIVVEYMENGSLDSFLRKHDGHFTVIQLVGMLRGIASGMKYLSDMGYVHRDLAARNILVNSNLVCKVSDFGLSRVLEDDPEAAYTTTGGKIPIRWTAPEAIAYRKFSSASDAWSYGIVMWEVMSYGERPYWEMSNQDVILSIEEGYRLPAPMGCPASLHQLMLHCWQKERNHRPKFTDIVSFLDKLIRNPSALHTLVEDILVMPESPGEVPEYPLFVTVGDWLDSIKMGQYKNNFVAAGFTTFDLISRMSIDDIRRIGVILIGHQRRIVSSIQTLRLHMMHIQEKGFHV

Row | SMILES | residual activity (EPHB2 (human)) [%] | residual activity (EPHA6 (human)) [%] | residual activity (TGFBR2 (human)) [%] | residual activity (DYRK3 (human)) [%] | residual activity (TLK2 (human)) [%] | residual activity (PHKG2 (human)) [%] | residual activity (CSNK1A1 (human)) [%] | residual activity (PRKD3 (human)) [%] | residual activity (CAMK2B (human)) [%] | residual activity (KDR (human)) [%] | residual activity [1] [%] | residual activity (RPS6KB2 (human)) [%] | residual activity (PAK6 (human)) [%] | residual activity (STK38 (human)) [%] | residual activity (DYRK1A (human)) [%] | residual activity (CHEK1 (human)) [%] | residual activity (PRKACG (human)) [%] | residual activity (CSNK2A1 (human)) [%] | residual activity (PRKCA (human)) [%] | residual activity (EGFR (human)) [%] | also measured
1 | CCc1nc(-c2ccc(OC)cc2)[nH]c1-c1ccncc1 | 111 | 104 | 140 | 95.5 | 102 | 111 | 99.4 | 97.1 | 97.1 | 103 | 106 | 95.6 | 102 | 102 | 97.7 | 98.6 | 103 | 95.3 | 107 | 103 | residual activity [2]: 110%; residual activity (PRKG1 (human)): 81% and 91.2%; residual activity (BRAF (human)): 102%; residual activity [3]: 104%; residual activity (ULK3 (human)): 83.4%; residual activity (PDPK1 (human)): 96%; residual activity (MARK1 (human)): 99.2%; residual activity (CDK3 CCNE1 (human)): 97.9%; residual activity (KIT (human)): 92.7%; residual activity (YES1 (human)): 95.1%; residual activity (CLK4 (human)): 99.3%; residual activity (MAPK14 (human)): 113%; residual activity (RPS6KB1 (human)): 98.4%; residual activity (RET (human)): 99.2%; residual activity (MAPKAPK5 (human)): 95.2%; residual activity (PTK2 (human)): 101%; residual activity (MKNK2 (human)): 88.2%; residual activity (STK16 (human)): 108%; residual activity (TAOK2 (human)): 98.2%; residual activity (MYO3B (human)): 107%
2 | O=c1c(-c2ccc(F)cc2)c(-c2ccncc2)[nH]n1-c1ccc(Cl)cc1 | 101 | 57 | 97.7 | 82.7 | 109 | 121 | 63.7 | 74.5 | 93.7 | 90.6 | 90.9 | 95.5 | 73.5 | 93.7 | 89.8 | 101 | 91.9 | 95.3 | 100 | 57.7 | residual activity [2]: 103%; residual activity (PRKG1 (human)): 106% and 95.6%; residual activity (LCK (human)): 101%; residual activity [3]: 97.3%; residual activity (ULK3 (human)): 94.3%; residual activity (PDPK1 (human)): 104%; residual activity (MARK1 (human)): 94.5%; residual activity (CDK3 CCNE1 (human)): 86.9%; residual activity (KIT (human)): 94.9%; residual activity (YES1 (human)): 85.1%; residual activity (CLK4 (human)): 78.9%; residual activity (MAPK14 (human)): 11.2%; residual activity (RPS6KB1 (human)): 89.9%; residual activity (RET (human)): 99.6%; residual activity (MAPKAPK5 (human)): 99.7%; residual activity (PTK2 (human)): 95.1%; residual activity (MKNK2 (human)): 97.2%; residual activity (STK16 (human)): 100%; residual activity (TAOK2 (human)): 101%; residual activity (MYO3B (human)): 90.7%
3 | Cn1cc(/C=C2\C(=O)Nc3ccc(S(N)(=O)=O)cc32)c2ccccc21 | 84.8 | 30.2 | 101 | 89.7 | 63.2 | 52 | 105 | 76.4 | 86.5 | 74.3 | 35 | 94.6 | 90.1 | 53.1 | 92.2 | 19.5 | 101 | 84.7 | 123 | 77.5 | residual activity [2]: 83.9%; residual activity (PRKG1 (human)): 81.1% and 87.2%; residual activity (LCK (human)): 57.6%; residual activity [3]: 71.8%; residual activity (ULK3 (human)): 15.8%; residual activity (PDPK1 (human)): 95%; residual activity (MARK1 (human)): 40.4%; residual activity (CDK3 CCNE1 (human)): 90.3%; residual activity (KIT (human)): 68.2%; residual activity (YES1 (human)): 24.2%; residual activity (CLK4 (human)): 42.6%; residual activity (MAPK14 (human)): 123%; residual activity (RPS6KB1 (human)): 44.3%; residual activity (RET (human)): 1.93%; residual activity (MAPKAPK5 (human)): 88.3%; residual activity (PTK2 (human)): 94.1%; residual activity (MKNK2 (human)): 71.1%; residual activity (STK16 (human)): 78.7%; residual activity (TAOK2 (human)): 86.4%; residual activity (MYO3B (human)): 74.6%
